Measured values as given in patent US20060223792A1, “Phenyl and pyridyl LTA4H modulators” (priority 2005, published 2006).
Read-outs that look alike come from different tables or passages of the source.

Tests used:
[1] = tested on: ex vivo stimulated LTB4 production; test: Murine arachidonic acid-induced inflammation model: ex vivo stimulated LTB4 production in blood; conditions: Mus musculus; 30 mg/kg oral gavage, female Balb/c mice; blood taken 3 h after arachidonic acid, stimulated ex vivo with A23187; read-out: % Inh. LTB4
Procedure: (§1) Murine Arachidonic Acid-Induced Inflammation Model
(§2) LTA4H inhibitor compounds of the present invention were dissolved in 20% cyclodextran/H2O at a concentration of 3 mg/mL. The solutions were administered by oral gavage to female Balb/c mice weighing approximately 20 grams each (0.2 mL per mouse, 30 mg of LTA4H inhibitor compound per kg). Sixty minutes after being administered an LTA4 inhibitor, each mouse received topical application of 20 μL of arachidonic acid (100 mg/mL in acetone) to the left ear and 20 μL of acetone only to the right ear. After 3 h, the mice were sacrificed, blood was withdrawn in heparinized syringes, and 8 mm ear biopsies were taken. Ear biopsies were weighed to determine edema and then frozen at −80° C. until needed for determination of neutrophil influx.
One hundred-microliter aliquots of heparinized blood were added to wells of a microtiter plate, along with equal volumes of RPMI-1640 medium, and calcium ionophore A23187 was added to each sample well (final concentration=[…]). The microtiter plate contents were incubated for 10 min at 37° C. in a humidified incubator. The reaction was terminated by centrifugation (833×g, 10 min at 4° C.). Supernatants were analyzed for LTB4 by a commercially available enzyme-linked immunoassay (Cayman Chemical Co.) in accordance with the manufacturer's instructions. The percent inhibition of ex vivo stimulated LTB4 production (% Inh. LTB4) was determined by comparison to animals treated identically except that the solution admininstered by oral gavage was devoid of inhibitor compound.

[2] = tested on: neutrophil influx (myeloperoxidase, MPO); test: Murine arachidonic acid-induced inflammation model: neutrophil influx in ear (myeloperoxidase activity); type: in vivo, female Balb/c mice; conditions: Mus musculus, read-out: % Inh. MPO
Procedure: as §1, §2
Neutrophil influx was quantified by measuring the activity of myeloperoxidase (MPO), a neutrophil-specific enzyme. The ear biopsies were homogenized in 0.5 mL extraction buffer (0.3 M sucrose, 0.22% (w/v) hexadecyl trimethyl ammonium bromide (CTAB), and 2.5 mM citrate prepared from 0.5 M citrate stock solution (pH 5.0)). Debris was removed by centrifugation at 14000×g for 10 min. Aliquots of 10 μL of the resulting supernatant were added to wells of a microtiter plate, along with 90-μL aliquots of dilution buffer (10 mM citrate, 0.22% CTAB), followed by addition of 20 μL TMB liquid substrate system (Sigma Chemical Co.) to each sample well. The microtiter plate contents were held at rt for 1 h. The reaction was stopped by addition of 100 μL 1 M H2SO4 to each sample well, and the myeloperoxidase activity in each sample was determined from the absorbance at 405 nm. The background value from the right ear, treated only with acetone, was subtracted from that for the left ear, treated with arachidonic acid in acetone, for each animal. The percent inhibition of neutrophil influx (% lnh. MPO) by compounds of the invention was determined by comparison to animals treated identically, except that the solution administered by oral gavage was devoid of inhibitor compound.

[3] = 30 mg/kg oral gavage 60 min before topical arachidonic acid to ear, female Balb/c mice, ear biopsies after 3 h

**Q.** What does the source list for O=C1CCCN1C1CCN(Cc2ccc(OCCc3ccccc3)cc2)CC1 [Example 99, 1-[1-(4-Phenethyloxy-benzyl)-piperidin-4-yl]-pyrrolidin-2-one]?
**A.** inhibition at 30 mg/kg [1]: 68%; inhibition in vivo at 30 mg/kg [2, 3]: 17%

**Q.** With O=C(O)C1CCN(Cc2ccc(OCCc3ccccc3)cc2)CC1 [Example 96, 1-(4-Phenethyloxy-benzyl)-piperidine-4-carboxylic acid] as the molecule, how does the inhibition at 30 mg/kg [1] read?
**A.** 80%

**Q.** And the inhibition in vivo at 30 mg/kg [2, 3]?
**A.** 95%

**Q.** Which inhibition at 30 mg/kg [1] does the source give for O=C(O)C1CCN(CCc2ccc(OCCc3ccccc3)cc2)CC1 [Example 81, 1-[2-(4-Phenethyloxy-phenyl)-ethyl]-piperidine-4-carboxylic acid] here?
**A.** 78%

**Q.** And the inhibition in vivo at 30 mg/kg [2, 3]?
**A.** 64%

**Q.** With O=C(O)C1CCN(Cc2ccc(OCCCc3ccccc3)cc2)CC1 [Example 112, 1-[4-(3-Phenyl-propoxy)-benzyl]-piperidine-4-carboxylic acid] as the molecule, how does the inhibition at 30 mg/kg [1] read?
**A.** 91%

**Q.** And the inhibition in vivo at 30 mg/kg [2, 3]?
**A.** 79%

**Q.** What does the source list for O=C(O)C1CCN(CCOc2ccc(OCCCc3ccccc3)cc2)CC1 [Example 117, 1-{2-[4-(3-Phenyl-propoxy)-phenoxy]-ethyl}-piperidine-4-carboxylic acid]?
**A.** inhibition at 30 mg/kg [1]: 74%; inhibition in vivo at 30 mg/kg [2, 3]: 62%

**Q.** For CN(C(=O)Oc1ccc(OCCN2CCC(O)(c3ccccc3)CC2)cc1)c1ccccc1 [Example 40, Methyl-phenyl-carbamic acid 4-[2-(4-hydroxy-4-phenyl-piperidin-1-yl)-ethoxy]-phenyl ester], which inhibition at 30 mg/kg [1] is on record?
**A.** 79%

**Q.** And the inhibition in vivo at 30 mg/kg ([2]; po, 3 h)?
**A.** 75%
